In US20230373934A1, “ANDROGEN RECEPTOR MODULATORS AND METHODS FOR THEIR USE” (ESSA Pharma, Inc., priority 2022, published 2023):
pIC50: −log10 of the molar value.

Legend:
[1] = molecular target: T1, androgen receptor (AR) (Homo sapiens, UniProt P10275); assay: Androgen-induced PSA-luciferase assay, Luciferase Assay B (cells stably expressing ARR2PB or PSA-firefly luciferase reporter, 384-well); type: cell-based; conditions: Luciferase Assay B (Compounds A186-A219 and A221-A245); stable luciferase reporter cells, 1 h pretreatment, R1881 24 h, serum-free; read-out: PSA-Luc IC50 Range
T1 sequence (P10275 1-920 T878A): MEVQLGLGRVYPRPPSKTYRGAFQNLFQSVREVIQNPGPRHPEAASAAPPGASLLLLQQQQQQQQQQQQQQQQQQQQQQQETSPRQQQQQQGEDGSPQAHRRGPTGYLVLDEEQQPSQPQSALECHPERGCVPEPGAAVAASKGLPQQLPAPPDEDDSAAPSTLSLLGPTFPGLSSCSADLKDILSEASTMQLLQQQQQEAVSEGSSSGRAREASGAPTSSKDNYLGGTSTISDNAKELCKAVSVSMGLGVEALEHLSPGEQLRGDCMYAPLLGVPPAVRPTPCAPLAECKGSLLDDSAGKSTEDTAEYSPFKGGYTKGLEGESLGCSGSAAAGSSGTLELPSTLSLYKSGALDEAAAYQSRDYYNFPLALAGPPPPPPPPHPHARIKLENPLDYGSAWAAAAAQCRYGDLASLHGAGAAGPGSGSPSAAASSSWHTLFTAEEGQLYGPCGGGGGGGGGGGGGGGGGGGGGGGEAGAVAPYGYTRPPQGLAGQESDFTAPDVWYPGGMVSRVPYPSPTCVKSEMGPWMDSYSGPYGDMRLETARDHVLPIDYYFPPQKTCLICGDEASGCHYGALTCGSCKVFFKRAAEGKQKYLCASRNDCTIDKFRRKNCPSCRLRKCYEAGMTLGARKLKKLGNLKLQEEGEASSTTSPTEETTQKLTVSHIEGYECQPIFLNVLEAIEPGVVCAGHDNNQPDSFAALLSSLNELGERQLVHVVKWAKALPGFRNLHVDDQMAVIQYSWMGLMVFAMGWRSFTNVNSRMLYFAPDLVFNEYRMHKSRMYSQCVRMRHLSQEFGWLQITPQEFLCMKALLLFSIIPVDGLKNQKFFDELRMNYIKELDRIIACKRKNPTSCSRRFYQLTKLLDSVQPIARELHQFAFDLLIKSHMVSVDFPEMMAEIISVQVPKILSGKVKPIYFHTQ
Description: Luciferase Assay B: Cells stably expressing probasin promoter (ARR2PB) or human prostate-specific antigen (PSA)-firefly luciferase reporter were plated in poly-D-lysine-coated 384-well plates. 48 h after plating, cells were pretreated with vehicle or compounds for 1 h before adding R1881 under serum-free and phenol red-free conditions and then further incubated for 24 h. R1881 was added only for LNCaP cells. Firefly luciferase activities were determined by EnVision plate reader (Perkinemer) using the Steady-Glo Luciferase Reporter Assay System (Promega). Values were normalized to protein content. GraphPad Prism graphing software was used to calculate IC50 values. Luciferase Assay B was run for Compounds A186-A219 and A221-A245 in Table 2.
(§1) Statistical analyses were performed using GraphPad Prism (Version 6.01 for Windows; La Jolla, CA, USA). Comparisons between treatment and control groups were compared using Two-Way ANOVA with post-hoc Dunnett's and Tukey's tests. Differences were considered statistically significant at P values less than 0.05.

[2] = molecular target: T2, androgen receptor (AR) (Homo sapiens, UniProt P10275, T878A); assay: Androgen-induced PSA-luciferase assay, Luciferase Assay A (LNCaP transiently transfected with PSA (6.1 kb)-luciferase reporter); type: cell-based; conditions: LNCaP cells, 1 h pretreatment, R1881 (1 nM) 24 h, read-out: PSA-Luc IC50 Range
T2 construct: endogenous in cells; host or cells: LNCaP
T2 sequence (P10275 1-920 T878A): T1 sequence (P10275 1-920 T878A)
Description: The PSA (6.1 kb)-luciferase reporter contains functional AREs (androgen response elements) to which AR binds in response to androgen to induce luciferase activity. LNCaP cells were transiently transfected with the PSA (6.1 kb)-luciferase reporter for 24 h, and then pretreated with vehicle (DMSO) or indicated concentration of representative compounds for one hour prior to the addition of synthetic androgen, R1881 (1 nM). After 24 h of incubation with R1881, the cells were harvested, and relative luciferase activities were determined (FIG. 1). To determine the IC50, treatments were normalized to vehicle control activity induced by R1881 (Table 2).
Luciferase Assay A: Cells were lysed using Passive Lysis Buffer (Promega) and then collected into V-bottom 96-well tissue culture plates. Lysates were centrifuged at 4° C. for 5 minutes at 3000 rpm. To measure luminescence of LNCaP cell lysates the Firefly Luciferase Assay System (Promega) was employed, according to manufacturer's protocol. Relative luminescence units (RLU) in cell lysates were detected for 10 seconds using Promega GloMax-Multi Detection Luminometer (Promega). Values were normalized to protein content. GraphPad Prism graphing software was used to calculate IC50 values. Luciferase Assay A was run for all compounds in Table 2 unless otherwise noted below.
as §1

| Compound | pIC50 [1] | pIC50 [2] |
| --- | --- | --- |
| CS(=O)(=O)Nc1cc2n(n1)CCN(c1ccc(Oc3cc(Cl)c(OC4CC4)c(C#N)c3)cc1)C2 [Compound A231] | < 5.70 | – |
| CS(=O)(=O)NC12CC(COc3ccc(Oc4cc(Cl)c(OC5CC5)c(C#N)c4)cc3)(C1)C2 [Compound A228, N-(3-((4-(3-chloro-5-cyano-4-cyclopropoxyphenoxy)phenoxy)methyl)bicyclo[1.1.1]pentan-1-yl)methanesulfonamide] | < 5.70 | – |
| CS(=O)(=O)NC12CC(COc3ccc(N(CC(F)(F)F)c4cc(Cl)c(OC5CC5)c(C#N)c4)cc3)(C1)C2 [Compound A236, N-(3-((4-((3-chloro-5-cyano-4-cyclopropoxyphenyl)(2,2,2-trifluoroethyl)amino)phenoxy)methyl)bicyclo[1.1.1]pentan-1-yl)methanesulfonamide] | > 6.30 | – |
| CC(C)(c1ccc(OCc2ccnc(NS(C)(=O)=O)n2)cc1)c1cc(Cl)c(N2CCC(F)(F)CC2)c(C#N)c1 [Compound A132] | – | < 5.70 |
| C=COc1c(Cl)cc(C(C)(C)c2ccc(COc3ccnc(NS(C)(=O)=O)n3)cc2)cc1C#N [Compound A102] | – | < 5.70 |
| CC(C)(c1ccc(OCc2cc(N3CCNCC3)nc(NS(C)(=O)=O)n2)cc1)c1cc(Cl)c(OCCCl)c(C#N)c1 [Compound A116] | – | < 5.70 |
| CCCOc1c(Cl)cc(C(C)(C)c2ccc(OCc3ccnc(NS(C)(=O)=O)n3)cc2)cc1C#N [Compound A178] | – | > 6.30 |
| CC(C)(c1ccc(OC2CC3(CC(NS(C)(=O)=O)C3)C2)cc1)c1cc(Cl)c(OCCCl)c(C#N)c1 (centres unmarked) [Compound A150] | – | 5.70 to 6.30 |
| CS(=O)(=O)Nc1cnc2cc(-c3ccc(Nc4cc(Cl)c(OCCCl)c(C#N)c4)cc3)ccc2n1 [Compound A27] | – | < 5.70 |
| CC(C)(c1ccc(OCc2ccnc(NS(C)(=O)=O)n2)cc1)c1cc(Cl)c(N2CC3CC(C2)O3)c(C#N)c1 [Compound A126] | – | < 5.70 |
| CC(C)(c1ccc(OC[C@]2(C)C[C@H](NS(C)(=O)=O)C2)cc1)c1cc(Cl)c(OCCCl)c(C#N)c1 [Compound A51] | – | < 5.70 |
| Cn1cnc(S(=O)(=O)Nc2nccc(COc3ccc(C(C)(C)c4cc(Cl)c(OCCCl)c(C#N)c4)cc3)n2)c1 [Compound A107] | – | < 5.70 |
| CC(C)(c1ccc(CN2CC(NS(C)(=O)=O)CC(F)(F)C2)cc1)c1cc(Cl)c(OCCCl)c(C#N)c1 (centres unmarked) [Compound A46] | – | < 5.70 |
| CC(C)(c1ccc(-c2cnc(N3CC(NS(C)(=O)=O)C3)c(F)c2)cc1)c1cc(Cl)c(OCCCl)c(C#N)c1 [Compound A50] | – | > 6.30 |
| CC(C)(c1ccc(OC[C@H]2CC[C@H](NS(C)(=O)=O)CC2)cc1)c1cc(Cl)c(OCCCl)c(C#N)c1 [Compound A63] | – | 5.70 to 6.30 |
| CS(=O)(=O)N[C@H]1C[C@H](n2cc(-c3ccc(Oc4cc(Cl)c(OCCCl)c(C#N)c4)cc3)cn2)C1 [Compound A79] | – | < 5.70 |
| CC(C)(c1ccc(OCc2ccnc(NS(C)(=O)=O)n2)cc1)c1cc(Cl)c(OC(F)F)c(C#N)c1 [Compound A42] | – | 5.70 to 6.30 |
| CC(C)(c1ccc(Oc2ccnc(CNS(C)(=O)=O)n2)cc1)c1cc(Cl)c(OCCCl)c(C#N)c1 [Compound A85] | – | 5.70 to 6.30 |
| CC(C)(c1ccc(N2CCC(N3CC(NS(C)(=O)=O)C3)CC2)cc1)c1cc(Cl)c(OCCCl)c(C#N)c1 [Compound A47] | – | < 5.70 |

Continued, values first:

| pIC50 [1] | pIC50 [2] | Compound |
| --- | --- | --- |
| > 6.30 | – | CS(=O)(=O)Nc1cnc2cc(-c3ccc(N(CC(F)F)c4cc(Cl)c(OC5CC5)c(C#N)c4)cc3)ccc2n1 [Compound A222] |
| > 6.30 | – | CS(=O)(=O)NCc1nccc(COc2ccc(N(CC(F)(F)F)c3cc(Cl)c(OC4CC4)c(C#N)c3)cc2)n1 [Compound A221] |
| 5.70 to 6.30 | – | CN(c1ccc(OCc2ccnc(NS(C)(=O)=O)n2)cc1)c1cc(Cl)c(OC2CC2)c(C#N)c1 [Compound A237] |
| – | < 5.70 | CC(C)(c1ccc(CCN2CC(NS(C)(=O)=O)C2)cc1)c1cc(Cl)c(OCCCl)c(C#N)c1 [Compound A20] |
| – | < 5.70 | CC(C)(c1ccc(OCc2ccnc(NS(C)(=O)=O)n2)cc1)c1cc(Cl)c(OC2CN(CC(F)(F)F)C2)c(C#N)c1 [Compound A165] |
| – | < 5.70 | CS(=O)(=O)NC1CCN(Cc2ccc(Oc3cc(Cl)c(OCCCl)c(C#N)c3)cc2)CC1(F)F (centres unmarked) [Compound A35] |
| – | < 5.70 | CC(C)(c1ccc(-c2cnc(NC3CCN(S(C)(=O)=O)CC3)nc2)cc1)c1cc(Cl)c(OCCCl)c(C#N)c1 [Compound A151] |
| – | < 5.70 | CC(C)(c1ccc(OCc2ccnc(NS(C)(=O)=O)n2)cc1)c1cnc(OCCCl)c(C#N)c1 [Compound A170] |
| – | 5.70 to 6.30 | CC(C)(c1ccc(OCc2ccnc(-n3cnc(S(N)(=O)=O)n3)n2)cc1)c1cc(Cl)c(OCCCl)c(C#N)c1 [Compound A108] |
| – | 5.70 to 6.30 | CC(C)(c1ccc(OCc2cccc(NS(C)(=O)=O)c2F)cc1)c1cc(Cl)c(OCCCl)c(C#N)c1 [Compound A130] |
| – | 5.70 to 6.30 | CS(=O)(=O)Nc1cnc2cc(-c3ccc(Oc4cc(F)c(OC5CC5)c(C#N)c4)cc3)ccc2n1 [Compound A154] |
| – | 5.70 to 6.30 | CS(=O)(=O)N1CC2(CC(Oc3ccc(Oc4cc(Cl)c(OCCCl)c(C#N)c4)cc3)C2)C1 [Compound A137] |
| – | 5.70 to 6.30 | CC(C)(c1ccc(OCc2ccnc(NS(C)(=O)=O)n2)cc1)c1cc(Cl)c(OC2CC(F)(F)C2)c(C#N)c1 [Compound A121] |
| – | < 5.70 | CC(C)(c1ccc(OCc2ccnc(NS(=O)(=O)c3cccnc3)n2)cc1)c1cc(Cl)c(OCCCl)c(C#N)c1 [Compound A109] |
| – | < 5.70 | CS(=O)(=O)Nc1nccc2cc(-c3ccc(Oc4cc(Cl)c(OCCCl)c(C#N)c4)cc3)ccc12 [Compound A65] |
| – | < 5.70 | CC(C)(c1cc(Cl)c(OCCCl)c(C#N)c1)c1ccc(OCc2ccnc(NS(C)(=O)=O)n2)c(CN)c1 [Compound A111] |
| – | 5.70 to 6.30 | CC(C)(c1ccc(OC[C@]2(F)C[C@@H](NS(C)(=O)=O)C2)cc1)c1cc(Cl)c(OCCCl)c(C#N)c1 [Compound A39] |
| – | 5.70 to 6.30 | CS(=O)(=O)Nc1nc2ccc(-c3ccc(Oc4cc(Cl)c(OCCCl)c(C#N)c4)cc3)cc2o1 [Compound A61] |
| – | < 5.70 | CC(C)(c1ccc(-c2ccc(N3CCC(NS(C)(=O)=O)CC3)nc2)cc1)c1cc(Cl)c(OCCCl)c(C#N)c1 [Compound A58] |
| – | 5.70 to 6.30 | CC(C)(c1ccc(OCc2ccnc(NS(=O)(=O)c3cccs3)n2)cc1)c1cc(Cl)c(OCCCl)c(C#N)c1 [Compound A100] |
| – | 5.70 to 6.30 | CC(C)(c1ccc(OCc2ccnc(NS(C)(=O)=O)n2)cc1)c1cc(Cl)c(OCC2CC2)c(C#N)c1 [Compound A147] |
| – | < 5.70 | CC(C)(c1ccc(OCc2ccnc(NS(C)(=O)=O)n2)cc1)c1cc(Cl)c(CCO)c(C#N)c1 [Compound A129] |
| – | < 5.70 | CC(C)(c1ccc(OCc2ccnc(NS(C)(=O)=O)n2)cc1)c1cc(Cl)c(CCN2CC(F)(F)C2)c(C#N)c1 [Compound A168] |
| – | 5.70 to 6.30 | CC(C)(c1ccc(OC2CC3(C2)CN(S(C)(=O)=O)C3)cc1)c1cc(Cl)c(OC2CC2)c(C#N)c1 [Compound A141] |
| – | 5.70 to 6.30 | CC(C)(c1ccc(OCC23CC(NS(C)(=O)=O)(C2)C3)cc1)c1cc(Cl)c(OC2CC2)c(C#N)c1 [Compound A143] |
